PubChem BioAssay (NCI)
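Assay format: 96-well plates, 48-hour exposure. GI50 = concentration required for 50% inhibition of growth. TGI is the concentration that stops growth completely.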

How the values were obtained:
Assay in all cases: NCI-60 cell line screen, 48 h
[1] = system: 786-0 renal
[2] = system: A498 renal
[3] = system: A549 NSCLC
[4] = system: ACHN renal
[5] = system: BT-549 breast
[6] = system: CAKI-1 renal
[7] = system: CCRF-CEM leukemia
[8] = system: COLO 205 colon
[9] = system: DU-145 prostate
[10] = system: EKVX NSCLC
[11] = system: HCC-2998 colon
[12] = system: HCT-116 colon
[13] = system: HCT-15 colon
[14] = system: HOP-62 NSCLC
[15] = system: HOP-92 NSCLC
[16] = system: HS 578T breast
[17] = system: HT29 colon
[18] = system: IGROV1 ovarian
[19] = system: K-562 leukemia
[20] = system: KM12 colon
[21] = system: LOX IMVI melanoma
[22] = system: M14 melanoma
[23] = system: MALME-3M melanoma
[24] = system: MCF7 breast
[25] = system: MDA-MB-231 breast
[26] = system: MDA-MB-435
[27] = system: MOLT-4 leukemia
[28] = system: NCI-H226 lung
[29] = system: NCI-H23 lung
[30] = system: NCI-H460 lung
[31] = system: NCI-H522 lung
[32] = system: NCI/ADR-RES ovarian
[33] = system: OVCAR-3 ovarian
[34] = system: OVCAR-4 ovarian
[35] = system: OVCAR-5 ovarian
[36] = system: OVCAR-8 ovarian
[37] = system: PC-3 prostate
[38] = system: RPMI-8226 leukemia
[39] = system: RXF 393 renal
[40] = system: SF-268 CNS
[41] = system: SF-295 CNS
[42] = system: SF-539 CNS
[43] = system: SK-MEL-2 melanoma
[44] = system: SK-MEL-28 melanoma
[45] = system: SK-MEL-5 melanoma
[46] = system: SK-OV-3 ovarian
[47] = system: SN12C renal
[48] = system: SNB-19 CNS
[49] = system: SNB-75 CNS
[50] = system: SR leukemia
[51] = system: SW-620 colon
[52] = system: T-47D breast
[53] = system: TK-10 renal
[54] = system: U251 CNS
[55] = system: UACC-257 melanoma
[56] = system: UACC-62 melanoma
[57] = system: UO-31 renal
[58] = system: HL-60(TB) leukemia

Compound: COc1ccc2c(-c3ccc(OCCN(C)C)cc3)c(Oc3ccccc3)c(=O)oc2c1
- TGI [1]: 8.68 µM
- TGI [2]: 26.8 µM
- TGI [3]: 10.4 µM
- TGI [4]: 22 µM
- TGI [5]: 24.4 µM
- TGI [6]: 25.1 µM
- TGI [7]: 10.1 µM
- TGI [8]: 9.59 µM
- TGI [9]: 27.6 µM
- TGI [10]: 23.5 µM
- TGI [11]: 10.3 µM
- TGI [12]: 8.79 µM
- TGI [13]: 14.6 µM
- TGI [14]: 27.3 µM
- TGI [15]: 25.8 µM
- TGI [16]: 21.5 µM
- TGI [17]: 22.4 µM
- TGI [18]: 19.1 µM
- TGI [19]: 12.4 µM
- TGI [20]: > 39.4 µM
- TGI [21]: 26.6 µM
- TGI [22]: 3.08 µM
- TGI [23]: 11.6 µM
- TGI [24]: 15.3 µM
- TGI [25]: 10.2 µM
- TGI [26]: 7.12 µM
- TGI [27]: 11.8 µM
- TGI [28]: 40 µM
- TGI [29]: 28.8 µM
- TGI [30]: 22.2 µM
- TGI [31]: 11.3 µM
- TGI [32]: 20.4 µM
- TGI [33]: 21.2 µM
- TGI [34]: 40.7 µM
- TGI [35]: 28.2 µM
- TGI [36]: 26.2 µM
- TGI [37]: 18.9 µM
- TGI [38]: 15.5 µM
- TGI [39]: 20.5 µM
- TGI [40]: 18.9 µM
- TGI [41]: 8.91 µM
- TGI [42]: 16.7 µM
- TGI [43]: 13.9 µM
- TGI [44]: 5.53 µM
- TGI [45]: 5.89 µM
- TGI [46]: 18.1 µM
- TGI [47]: 18.7 µM
- TGI [48]: 17.2 µM
- TGI [49]: 21.6 µM
- TGI [50]: 5.17 µM
- TGI [51]: 16.7 µM
- TGI [52]: > 59.9 µM
- TGI [53]: 23 µM
- TGI [54]: 8.9 µM
- TGI [55]: 4.52 µM
- TGI [56]: 9.82 µM
- TGI [57]: 13.9 µM

Compound: O=C1c2ccccc2C(=O)c2c1ccc(C(Br)Br)c2Cl
- GI50 [1]: 1.71 µM
- TGI [1]: 3.25 µM
- GI50 [2]: 17 µM
- TGI [2]: 31.9 µM
- GI50 [3]: 16.7 µM
- TGI [3]: 32.3 µM
- GI50 [4]: 1.57 µM
- TGI [4]: 3.02 µM
- GI50 [5]: 1.79 µM
- TGI [5]: 4.61 µM
- GI50 [7]: 2.1 µM
- TGI [7]: 8.21 µM
- GI50 [9]: 2.07 µM
- TGI [9]: 4.7 µM
- GI50 [10]: 4.42 µM
- TGI [10]: 17.8 µM
- GI50 [11]: 3.42 µM
- TGI [11]: 12.1 µM
- GI50 [12]: 1.58 µM
- TGI [12]: 3.02 µM
- GI50 [13]: 1.69 µM
- TGI [13]: 3.4 µM
- GI50 [58]: 3.66 µM
- TGI [58]: 11.2 µM
- GI50 [14]: 2.1 µM
- TGI [14]: 4.67 µM
- GI50 [15]: 1.67 µM
- TGI [15]: 3.35 µM
- GI50 [16]: 2.81 µM
- TGI [16]: 9.11 µM
- GI50 [17]: 1.87 µM
- TGI [17]: 3.54 µM
- GI50 [18]: 1.7 µM
- TGI [18]: 3.89 µM
- GI50 [20]: 2.04 µM
- TGI [20]: 5.28 µM
- GI50 [21]: 1.59 µM
- TGI [21]: 3.08 µM
- GI50 [22]: 2.67 µM
- TGI [22]: 9.06 µM
- GI50 [23]: 1.69 µM
- TGI [23]: 3.38 µM
- GI50 [24]: 1.69 µM
- TGI [24]: 3.86 µM
- GI50 [25]: 1.87 µM
- TGI [25]: 3.7 µM
- GI50 [26]: 3.03 µM
- TGI [26]: 10.9 µM
- GI50 [27]: 2.81 µM
- TGI [27]: 9.32 µM
- GI50 [28]: 4.49 µM
- TGI [28]: 24.4 µM
- GI50 [29]: 1.91 µM
- TGI [29]: 4.92 µM
- GI50 [30]: 2.01 µM
- TGI [30]: 3.85 µM
- GI50 [31]: 1.6 µM
- TGI [31]: 3.3 µM
- GI50 [32]: 3.1 µM
- TGI [32]: 14.9 µM
- GI50 [33]: 1.66 µM
- TGI [33]: 3.12 µM
- GI50 [34]: 1.78 µM
- TGI [34]: 4.3 µM
- GI50 [35]: 11.1 µM
- TGI [35]: 23.9 µM
- GI50 [36]: 3.16 µM
- TGI [36]: 8.87 µM
- GI50 [37]: 2.38 µM
- TGI [37]: 6.28 µM
- GI50 [39]: 2 µM
- TGI [39]: 4.79 µM
- GI50 [40]: 1.68 µM
- TGI [40]: 3.45 µM
- GI50 [41]: 11.7 µM
- TGI [41]: 23.9 µM
- GI50 [42]: 1.99 µM
- TGI [42]: 4.61 µM
- GI50 [43]: 3.27 µM
- TGI [43]: 12.4 µM
- GI50 [44]: 11.9 µM
- TGI [44]: 24.4 µM
- GI50 [45]: 5.84 µM
- TGI [45]: 18.1 µM
- GI50 [46]: 15.1 µM
- TGI [46]: 30 µM
- GI50 [47]: 1.92 µM
- TGI [47]: 3.82 µM
- GI50 [48]: 3.55 µM
- TGI [48]: 13.5 µM
- GI50 [49]: 13.7 µM
- TGI [49]: 26.9 µM
- GI50 [50]: 1.83 µM
- TGI [50]: 4.33 µM
- GI50 [51]: 1.78 µM
- TGI [51]: 3.4 µM
- GI50 [52]: 1.76 µM
- TGI [52]: 5.79 µM
- GI50 [53]: 3.91 µM
- TGI [53]: 12.3 µM
- GI50 [54]: 1.75 µM
- TGI [54]: 3.24 µM
- GI50 [55]: 12.1 µM
- TGI [55]: 24.8 µM
- GI50 [56]: 4.56 µM
- TGI [56]: 16.6 µM
- GI50 [57]: 1.73 µM
- TGI [57]: 3.78 µM
